Data on three molecules can be found in PMC9369794 (Molecules, 2022).

One series is described as follows: Water dispersibility. In kind it is physicochemical. The note with it: distilled water, sonication. On the procedure:
About 2 mg of the examined substance was dispersed in 40 mL of distilled water and the suspension was sonicated for 2 min. The addition of water was continued with 10 mL portions, after each portion the mixture was sonicated for 2 min. This process was continued till a homogenous solution was observed by naked eye. Then, the solution was let to stand for an hour to inspect any precipitate formation, but no changes occurred in any of the cases.

A short description of series [1]: Study of aggregation by UV-Vis spectrophotometry. The class given is physicochemical. The note with it: for change of UV spectrum with increasing ratio of PBS: starting from THF solutions. The method, boiled down: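 Conjugates dissolved in THF and diluted with THF or THF-PBS mixtures (1:1, 1:3) at identical carotenoid concentration; separately, 2.5∙10−4 M DMSO stocks added to PBS to final 0.3125–5 μM carotenoid. UV-Vis spectra recorded to follow band shifts and fine-structure changes; DMSO-PBS solutions also examined by DLS.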

A short description of series [2]: Kinetic solubility in PBS pH 7.4. The class given is physicochemical. Conditions: aqueous buffer, kinetic from dmso stock, kinetic solubility after 2 h, at 37 °C in PBS, nominal 250 μM, read-out: Kin.Sol. As to the method: On a 96-well polypropylene plate (Greiner bio-one) 7.5 μL stock solutions were added to 292.5 μL PBS (pH 7.4) to make a solution with the nominal concentration of 250 μM. For each sample 3 replicates were measured. […] After that, each sample was transferred into a filter plate (MSSBLPC, Multiscreen Filter plate, Merck kGaA) and filtered (Vaccum Manifold, Merck kGaA, Darmstadt, Germany). The filtrates were transferred into UV-Star microplates (Greiner bio-one) and acetonitrile (AcN) was added to each well to avoid precipitation. The final solvent ratio was AcN:PBS 70:30. UV-Vis spectra were collected for each replicate by a Multiskan Sky UV-plate reader (Thermo Scientific, Waltham, MA, USA) in a wavelength range of 250–700 nm, with 1 nm steps. After blank substraction, the kinetic solubility of the samples was determined based on absorption at λmax using a 5-point calibration curve for each sample recorded in 70:30 AcN:PBS solvent.
Limit of detection (LOD) and limit of quantification (LOQ) were calculated with Equations (1) and (2) respectively, based on UV-Vis spectral data:(1) LOD=3.3×σ/s (2) LOQ=10×σ/s where the σ value in the equations stands for the standard deviation of the absorption base line at 700 nm (where no sample-specific absorption was observed). The s value is the slope of the calibration curve recorded for each sample based on their absorption at λmax (Table 4.)

Series [3] can be described thus: TEAC assay using ABTS radical. Conditions: 6 min, ratio of slopes to trolox (melatonin dissolved in EtOH); for TEAC from DMSO: stock in DMSO diluted with PBS pH 7.4, 37 °C; for TEAC from THF: stock in THF diluted with PBS pH 7.4, 37 °C.

SMILES strings stand for the structures.

As to `CC1=C(/C=C/C(C)=C/C=C/C(C)=C/C=C/C=C(C)/C=C/C=C(\C)COC(=O)CCC(=O)O)C(C)(C)CCC1` [Compound 6, 8′-Apo-β-carotenol succinate], the “Water Dispersibility” value in the series “Water dispersibility” was found to be 1.5 mg/100 mL. The “change of UV spectrum with increasing ratio of PBS” value in series [1] is on record as “did not cause much change”. Besides, the solubility kinetic at 2 h in series [2] came out at 52.3 ± 2.4 µM. Further, in series [3], the “TEAC from DMSO” value was found to be 1.19 and the “TEAC from THF” value stood at 1.913.

For `CC1=C(/C=C/C(C)=C/C=C/C(C)=C/C=C/C=C(C)/C=C/C=C(C)/C=C/C2=C(C)C[C@@H](OC(=O)CCC(=O)O)CC2(C)C)C(C)(C)C[C@H](OC(=O)CCC(=O)O)C1` [Compound 7, Zeaxanthin bissuccinate], in “Water dispersibility”, the “Water Dispersibility” value is on record as 1.3 mg/100 mL. Further, in series [1], the “change of UV spectrum with increasing ratio of PBS” value is given as “did not cause much change”. For the same molecule, in series [2], the solubility kinetic at 2 h was 0.6 ± 0.1 µM. Further, in series [3], the “TEAC from DMSO” value came to 0.86 and the “TEAC from THF” value turned out to be 2.090.

For the molecule `CC1=C(/C=C/C(C)=C/C=C/C(C)=C/C=C/C=C(C)/C=C/C=C(C)/C=C/C2=C(C)C[C@@H](OC(=O)CCC(=O)O)CC2(C)C)C(C)(C)CCC1` [Compound 8, β-Cryptoxanthin succinate], the “Water Dispersibility” value in the series “Water dispersibility” is recorded as “less than 0.5 mg/100 mL”. Further, in series [1] (from THF:aqueous solutions), the “type of aggregates formed” value was “J-type (head-to-tail) aggregates”. For the same molecule, the “change of UV spectrum with increasing ratio of PBS” value in series [1] is given as “bathochromic shift”. Moreover, the solubility kinetic at 2 h in series [2] worked out at 1.3 ± 0.1 µM. For the same molecule, the “TEAC from THF” value in series [3] was found to be 1.827.
